According to patent US6569633B1, “Modulation of the sulfonylurea receptor and calcium in adipocytes for treatment of obesity/diabetes” (Artecel Science, Inc., priority 1998, dated 2003):

Legend:
[1] = test system: human adipocytes; assay: Lipolysis (glycerol release into the culture medium) in human adipocytes; type: cell-based
Protocol: FIG. 4. The anti-lipolytic effect of glibenclamide in human adipocytes. Activation of lipolysis in adipocytes is typically measured by release of glycerol into the media. Human adipocytes were treated with 10 μM glibenclamide alone, 10 μM glibenclamide plus 10 μM diazoxide or 10 μM glibenclamide plus 30 μM nitrendipine for 48 hr. Glycerol release was determined as described (19). *p<0.01 vs. Control.
Human adipocytes were examined for changes in lipolysis regulation by measurement of glycerol release into the media. Glycerol was measured by using a standard method (19), although other techniques for measuring glycerol would be equally useful.
Human subcutaneous abdominal adipose tissue was obtained from patients undergoing elective abdominal cosmetic surgery, although other types of adipose tissue, such as mesenteric, retroperitoneal, perirenal, or omental may be useful in identifying these compounds. Preadipocytes are isolated by collagenase treatment of the tissue and cultured adipocytes prepared as described (patent filed; Jan. 29, 1999; Ser. No. 09/240,029). Agents that regulate calcium flux in adipocytes as noted above can mediate lipolysis. Human adipocytes may be cultured in multi-well plates with different treatments between 1 hour or 24 hours as indicated, and glycerol release into the culture medium was determined as an indicator for lipolysis using a one-step enzymatic fluorometric method. The media collected from 1 hr treatments were used directly for glycerol measurements. For 24 hr treatments, media were removed, and cells were washed with Hank's Balanced Salt Solution and incubated in fresh medium for a further 10-60 min. This media were then used for glycerol measurements for 24 hr treatments.
We next investigated the role of adipocyte SUR1 on lipolysis. Lipolysis was measured as follows. Human adipocytes were treated as described below and glycerol release into the culture medium was determined as an indicator for lipolysis using a one step enzymatic fluorometric method (19). After treatment medium was obtained, HClO4 was added for deproteinization.
Agents that regulate calcium flux in adipocytes as noted above can mediate lipolysis. Human adipocytes (1 mL cells/well) were incubated in 24-well plates with different treatments for either 1 hour or 24 hours as indicated, and glycerol release into the culture medium was determined as an indicator for lipolysis using a one-step enzymatic fluorometric method. The media collected from 1 hr treatments were used directly for glycerol measurements. For 24 hr treatments, media were removed, and cells were washed with Hank's Balanced Salt Solution and incubated in fresh medium for a further 30 min. This media were then used for glycerol measurements for 24 hr treatments. After medium was collected, HClO4 was added to give a final concentration of 3% for deproteinization. The sample was centrifuged at 9000×g for 20 min. The supernatant was then collected and neutralized with 10N NaOH. Samples were stored at −80° C. prior to glycerol assay. Cells were collected, homogenized and stored at −80° C. for subsequent total protein correction by a modified Bradford method using Coomassie Blue dye (PIERCE, Rockford, Ill.).

[2] = test system: FAS activity in human adipocytes; assay: Fatty acid synthase (FAS) activity in human adipocytes; type: cell-based
[3] = test system: human adipocytes; assay: Triglyceride accumulation in human adipocytes; type: cell-based; settings: for triglyceride content: control 30.3±0.3
Protocol: Human subcutaneous abdominal adipocytes were isolated from healthy patients undergoing cosmetic liposuction using methodology we have previously described. Briefly, the tissue was washed several times with Hank's Balanced Salt Solution, minced into small fragments and digested with type I collagenase (1 mg/mL) in a shaking water bath at 37° C. for 30-40 minutes. Cells were then filtered through a sterile nylon filter (500 μm mesh) and cultured in Dulbecco's Modified Eagle's Medium (DMEM) supplemented with 1% fetal bovine serum, 1% bovine serum albumin, 100 U/mL penicillin, 100 μg/mL streptomycin and 50 μg/mL gentamicin. Cells were subsequently cultured in suspension in sterile polypropylene flasks in a humidified 37° C./5% CO2 incubator. After one day, suspended (floating) adipocytes were transferred to fresh medium and maintained as a thin layer at the top of the culture medium to ensure access to nutrients. The cells were maintained for another 24 hours in this medium and then changed to fresh medium with the addition of SUR agonists (such as glibenclamide) for up to 48 hours with the compounds to be tested. Medium was changed every 24 hours, and cell viability was verified with trypan blue exclusion at the end of representative experiments.
Stimulation of fatty acid synthase and concomitant inhibition of lipolysis results in increased lipid accumulation in human adipocytes. Adipocytes were treated as described above, harvested, and their triglyceride content was analyzed and normalized for protein content. […] Thus, these calcium-stimulated biochemical activities will contribute to the development of adipocyte hypertrophy and potentially obesity.

[4] = test system: human adipocytes; assay: Intracellular Ca2+ ([Ca2+]i) by fura-2 fluorometry in isolated human adipocytes; type: cell-based
Protocol: FIG. 2. Glibenclamide stimulation of [Ca^2+]i in isolated human adipocyte. [Ca^2+]i in isolated human adipocytes was determined fluorometrically as previously described (4,7). Briefly, the human adipocytes isolated as described above were incubated in DMEM medium overnight for cell recovery. Prior to [Ca^2+]i measurement, adipocytes were pre-incubated in serum-free medium for 2 hrs, rinsed with HBSS solution containing the following components in mM: NaCl 138, CaCl2 1.8, MgSO4 0.8, NaH2PO4 0.9, NaHCO3 4, glucose 20, glutamine 6, HEPES 20 and BSA 1%. Cells were then loaded with fura-2 acetoxymethyl ester (10 μM) in the same buffer for 45 min at 37° C. in the dark with continuous shaking. To remove extracellular dye, cells were rinsed with HBSS for 3 times and resuspended in this solution at a concentration of 2×10^5 cells/ml. [Ca^2+]i was measured using dual excitation (340 and 380 nm) and single emission (510 nm) fluorometry. Following the establishment of stable baseline, the response to glibenclamide (10 and 20 μM) was determined. Digitonin (25 μM) and Tris/EGTA (100 mM) were used to measure maximal and minimal fluorescence to calibrate the signals, and final [Ca^2+]i was then calculated by the equation of Grynkiewicz et al. (17). […] Glibenclamide (Glib) was added at time designated by the arrow. B. The dose-responsive effect of glibenclamide on [Ca^2+]i in human adipocytes. Glibenclamide was added at 10 and 20 µM at the indicated times. *p<0.05 vs. Control, **p<0.05 vs. 10 μM glibenclamide.
The functionality of the SUR1 receptor was determined with respect to calcium mobilization and small molecule effects. [Ca^2+]i response was measured fluorometrically in isolated human adipocytes using a standard method (2,16). Briefly, isolated human adipocytes were incubated in DMEM or any other suitable medium such as Ham's F-10, Modified Eagle's media plus 5-10% fetal calf serum overnight for cell recovery. Prior to [Ca^2+]i measurement, adipocytes were pre-incubated in serum-free medium for 2 hrs, rinsed with HBSS solution containing the following components in mM: NaCl 138, CaCl2 1.8, MgSO4 0.8, NaH2PO4 0.9, NaHCO3 4, glucose 20, glutamine 6, HEPES 20 and BSA 1%. Cells were then loaded with fura-2 acetoxymethyl ester (10 μM) in the same buffer for 30-60 min at 37° C. in dark with continuous shaking. To remove extracellular dye, cells were rinsed with HBSS for three times and resuspended in this solution at a concentration of 1-10×10^5 cells/ml. [Ca^2+]i was measured using dual excitation (340 and 380 nm) and single emission (510 nm) fluorometry. Following the establishment of stable baseline, the response to a SUR agonist such as glibenclamide (1-20 μM) can be determined. Digitonin (25 μM) and Tris/EGTA (100 mM) were used to measure maximal and minimal fluorescence to calibrate the signals, and final [Ca^2+]i was then calculated by a known method such as described in Grynkiewicz et al (17).
Correlation of lipolysis with flux of intracellular calcium ([Ca^2+]i) concentration is then performed. [Ca^2+]i is measured in primary adipocytes. For primary adipocytes, 3 ml of cells are resuspended in 6 ml of HBSS and fura-2/AM was loaded for 80 min at 37° C. Extracellular fura-2/AM is washed three times with HBSS by centrifugation. [Ca^2+]i levels are then measured fluorometrically in suspensions using dual excitation (340 and 380 nm)/single emission (510 nm) fluorometry and [Ca^2+]i is calculated by the computer in the fluorometer. As a control, after loading fura-2/AM cells are pretreated with nitrendipine (RBI, Natick, Mass.) (30 μM, final concentration) for 10 min at 37° C.

[5] = test system: GPDH activity in human adipocytes; assay: GPDH activity in human adipocytes; type: cell-based; settings: 10 μM glibenclamide plus 10 μM diazoxide
Protocol: FIG. 3. The lipogenic effect of glibenclamide in human adipocytes. As an indicator of lipogenic stimulation, both FAS and GPDH activity were measured. A. Glibenclamide stimulation of FAS activity. Human adipocytes were treated with 10 μM glibenclamide alone, 10 μM glibenclamide plus 10 μM diazoxide or 10 μM glibenclamide plus 30 μM nitrendipine for 48 hr. FAS was measured as described (6, 14). *p<0.001 vs. Control. B. Glibenclamide stimulation of GPDH activity. Human adipocytes were treated with 10 μM glibenclamide or 10 μM glibenclamide plus 10 μM diazoxide for 48 hr. GPDH activity was measured as described (14). *p<0.01 vs. Control.
To study the role of adipocyte SUR1 in regulating lipogenesis, we treated human adipocyte with SUR1 agonist and antagonist using FAS and GPDH activities as lipogenic markers. Human adipocytes were incubated in 24-well plates with the treatments indicated for 48 hr. FAS and GPDH activities were determined spectrophotometrically in crude cytosolic extracts of human adipocytes by measuring the oxidation rate of NADPH or NADH respectively, as previously described (14). The protein correction was measured by a modified Bradford method using Coomassie Blue dye (Pierce, Rockford, Ill.).

[6] = test system: obese Zucker rats; settings: cited from earlier work
[7] = test system: hyperinsulinemic obese adults; settings: cited from earlier work

C=C[C@@]1(C)CC(=O)[C@]2(O)[C@@]3(C)[C@@H](O)CCC(C)(C)[C@@H]3[C@H](O)[C@H](OC(C)=O)[C@@]2(C)O1 [forskolin]
increase in lipolysis ([1]; 1 μM forskolin): 48%

CCOC(=O)C1=C(C)NC(C)=C(C(=O)OC)C1c1cccc([N+](=O)[O-])c1 (stereo not drawn) [nitrendipine]
fatty acid synthase activity ([2]; 1 nM insulin plus 30 μM nitrendipine): 4.12 ± 0.03 nmol/min/mg | reduction in insulin-stimulated triglyceride accumulation ([3]; 1 nM insulin plus nitrendipine): 40%

[Cl-].[K+] [KCl]
lipolysis, % of control levels ([1]; 10 mM KCl, twenty-four hour exposure): 75.9±4.1% | inhibition of forskolin-induced lipolysis ([1]; 25 mM KCl, short-term (one-hour)): 42±5% | inhibition of forskolin-induced lipolysis ([1]; 40 mM KCl, short-term (one-hour)): 50±1.7% | fatty acid synthase activity ([2]; 40 mM KCl for two hours, harvested approximately 72 hours later, control 3.93±0.11): 6.24±0.2 nmol NADPH/min/mg protein | fatty acid synthase activity ([2]; 40 mM KCl, control 2.87 (diazoxide experiment)): 6.20±0.57 nmol/min/mg protein | triglyceride content ([3]; 40 mM KCl): 43.5±0.5 μg/mg protein

CC1=NS(=O)(=O)c2cc(Cl)ccc2N1 [diazoxide]
[Ca2+]i response to any dose of glibenclamide ([4]; in the presence of 5 μM diazoxide): no detectable response | [Ca2+]i response to any dose of glibenclamide ([4]; in the presence of 2-10 μM diazoxide): no detectable response | fatty acid synthase activity ([2]; 1 nM insulin and 5 μM diazoxide): 7.08 ± 0.10 nmol/min/mg | fatty acid synthase activity ([2]; 5 μM diazoxide and 2 μM glibenclamide): 1.00±0.10 nmol/min/mg protein | fatty acid synthase activity ([2]; 5 μM diazoxide and 10 μM glibenclamide): 1.21±0.31 nmol/min/mg protein | glibenclamide-caused increase in FAS activity ([2]; 10 μM glibenclamide plus 10 μM diazoxide, 48 hr): completely blocked | fatty acid synthase activity ([2]; 40 mM KCl in the presence of 5 μM diazoxide): 3.24±0.41 nmol/min/mg protein | glibenclamide-induced increases in fatty acid synthase activity ([2]; inclusion of 5 μM diazoxide): completely prevented | glibenclamide-stimulated increase in GPDH activity [5]: totally blocked | effect on obesity [6]: antiobesity effect | effect on obesity [7]: significant antiobesity effect

NC(=O)CC[C@@H]1NC(=O)[C@H](Cc2ccccc2)NC(=O)[C@H](Cc2ccc(O)cc2)NC(=O)[C@@H](N)CSSC[C@@H](C(=O)N2CCC[C@H]2C(=O)N[C@@H](CCCN=C(N)N)C(=O)NCC(N)=O)NC(=O)[C@H](CC(N)=O)NC1=O [AVP, arginine vasopressin]
inhibition of forskolin-induced lipolysis ([1]; 1 nM AVP, short-term): 56±6.6% | fatty acid synthase activity ([2]; 1 nM AVP): 6.9±0.1 nmol/min/mg protein

CNc1ccc2oc(C[C@H]3O[C@@]4(CC[C@H]3C)O[C@H]([C@H](C)C(=O)c3ccc[nH]3)[C@H](C)C[C@H]4C)nc2c1C(=O)O [A23187]
triglyceride accumulation ([3]; two-hour exposure to 10 nM A23187, ensuing 48 hours, control 31.4±2.4): 52±7 μg/mg protein

insulin
fatty acid synthase activity ([2]; 1 nM insulin, control 3.95±0.11): 14.56±0.22 nmol/min/mg protein

B1: agouti: recombinant agouti protein, purified agouti gene product from a baculovirus expression system (protein, UniProt Q03288 23-131, looked up)
Agouti-signaling protein: HLALEETLGDDRSLRSNSSMNSLDFSSVSIVALNKKSKKISRKEAEKRKRSSKKKASMKKVARPPPPSPCVATRDSCKPPAPACCDPCASCQCRFFGSACTCRVLNPNC
decrease in basal lipolysis ([1]; 100 nM recombinant agouti, 24 hr): 60% | effect on basal lipolysis ([1]; 100 nM recombinant agouti, short-term (1 hr)): no effect | forskolin-induced increase in lipolysis ([1]; 1 μM forskolin plus 100 nM agouti): reversed | ACTH-induced lipolysis ([1]; short-term agouti treatment): totally inhibited

B2: parathyroid hormone (peptide, UniProt P01270 32-115, looked up)
Parathyroid hormone: SVSEIQLMHNLGKHLNSMERVEWLRKKLQDVHNFVALGAPLAPRDAGSQRPRKKEDNVLVESHEKSLGEADKADVNVLTKAKSQ
modifications: Parathyroid hormone
notes: stimulator of receptor-mediated Ca2+ influx
fatty acid synthase activity ([2]; 4.8 nM PTH): 6.9±0.1 nmol/min/mg protein | triglyceride content ([3]; 4.8 nM PTH): 54.5±0.6 μg/mg protein
